Data from patent publication US12336981B2, “Compounds and compositions for the inhibition of NAMPT” (Valo Health, Inc., priority 2010, dated 2025).
Read-outs that look alike come from different tables or passages of the source.

How the values were obtained:
NAMPT = target: T1, NAMPT (Homo sapiens, UniProt P43490); assay: Biochemical inhibition assay: NAMPT enzymatic reaction, NMN quantified by mass spectrometry; conditions: read-out: Biochem IC50
T1 construct: His tag; host or cells: E. coli
In short: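 Inhibition of E. coli-expressed His-tagged human NAMPT, measured as NMN formation by mass spectrometry after a 30 min room-temperature reaction containing 1 μM NAM, 100 μM PRPP and 2.5 mM ATP.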

A2780 cells = assay: In-vitro cell proliferation assay (SRB), A2780 cells; type: cell-based; conditions: Homo sapiens, A2780, 72 h, A2780 cells, 72 hours, read-out: A2780 IC50
In short: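 Growth inhibition was derived from background-corrected SRB absorbance (570 nm), measured on cells fixed in 6% TCA after three days of compound treatment under 5% CO2 at 37° C.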

T1 sequence (P43490 whole entry): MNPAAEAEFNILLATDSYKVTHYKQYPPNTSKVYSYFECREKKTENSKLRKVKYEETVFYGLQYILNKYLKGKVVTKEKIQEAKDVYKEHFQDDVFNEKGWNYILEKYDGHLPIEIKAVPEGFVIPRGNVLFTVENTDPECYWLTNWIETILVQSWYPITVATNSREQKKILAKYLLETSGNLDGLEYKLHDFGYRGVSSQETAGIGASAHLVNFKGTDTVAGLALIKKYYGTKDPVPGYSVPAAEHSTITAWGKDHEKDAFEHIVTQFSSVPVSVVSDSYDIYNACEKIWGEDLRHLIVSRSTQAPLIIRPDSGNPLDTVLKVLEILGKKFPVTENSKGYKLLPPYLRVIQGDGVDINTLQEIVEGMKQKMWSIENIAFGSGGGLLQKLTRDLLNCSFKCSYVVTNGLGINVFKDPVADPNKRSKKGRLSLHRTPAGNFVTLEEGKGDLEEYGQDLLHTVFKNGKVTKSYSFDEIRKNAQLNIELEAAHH

SMILES | IC50 (NAMPT; NAMPT enzymatic assay) [nM] | IC50 (A2780 cells; SRB) [nM] | IC50 (NAMPT; NAMPT enzymatic reaction) [nM] | IC50 (A2780 cells; SRB assay) [nM]
O=C(NCc1ccc(S(=O)(=O)c2cccc(C(F)(F)F)n2)cc1)c1cc2ccncc2s1 [N-({4-[6-(trifluoromethyl)pyridine-2-sulfonyl]phenyl}methyl)thieno[2,3-c]pyridine-2-carboxamide] | 2.1 | 2.2 | – | –
O=C(NCc1ccc(S(=O)(=O)c2ccc(Cl)cc2)cc1)c1cc2ccncc2o1 [N-({4-[(4-chlorobenzene)sulfonyl]phenyl}methyl)furo[2,3-c]pyridine-2-carboxamide] | – | 14.2 | 4.9 | –
O=C(NCc1ccc(S(=O)(=O)c2cc(F)cc(Cl)c2)cc1)c1cnc2[nH]ncc2c1 | – | 6 | 13.3 | –
N#Cc1cccc(S(=O)(=O)c2ccc(CNC(=O)c3cc4ccncc4s3)cc2)c1 | – | 5.6 | 3.5 | –
O=C(NCc1ccc(S(=O)(=O)c2ccc(C(F)(F)F)cc2C(F)(F)F)cc1)c1cc2cnccc2[nH]1 | 40.1 | 14 | – | –
Cc1ccc(S(=O)(=O)c2ccc(CNC(=O)c3ccc4nccn4c3)cc2)cn1 [N-{[4-(6-methylpyridine-3-sulfonyl)phenyl]methyl}imidazo[1,2-a]pyridine-6-carboxamide] | 21.5 | 13.9 | – | –
O=C(NCc1ccc(S(=O)(=O)c2cncc(N3CCCC3)c2)cc1)c1cc2ccncc2o1 [N-({4-[5-(pyrrolidin-1-yl)pyridine-3-sulfonyl]phenyl}methyl)furo[2,3-c]pyridine-2-carboxamide] | 22.8 | 4.9 | – | –
Cc1ccc(S(=O)(=O)c2ccc(CNC(=O)c3cnc4[nH]ncc4c3)cc2)cc1C | – | 3.4 | 5.1 | –
CC(C)COc1cccc(S(=O)(=O)c2ccc(CNC(=O)c3ccc4nccn4c3)cc2)c1 | 15.7 | 10.6 | – | –
COc1cc(C)c(S(=O)(=O)c2ccc(CNC(=O)c3ccc4nccn4c3)cc2)cc1C | – | 6 | 28.1 | –
COc1cc(Cl)ccc1S(=O)(=O)c1ccc(CNC(=O)c2cc3cnccc3[nH]2)cc1 [N-({4-[(4-chloro-2-methoxybenzene)sulfonyl]phenyl}methyl)-1H-pyrrolo[3,2-c]pyridine-2-carboxamide] | – | – | 22 | 3
O=C(NCc1ccc(S(=O)(=O)c2cccc(OC(F)(F)F)c2)cc1)c1cc2cnccc2[nH]1 [N-[(4-{[3-(trifluoromethoxy)benzene]sulfonyl}phenyl)methyl]-1H-pyrrolo[3,2-c]pyridine-2-carboxamide] | – | – | 5 | 3
CS(=O)(=O)c1cccc(S(=O)(=O)c2ccc(CNC(=O)c3ccc4nccn4c3)cc2)c1 | – | 16 | 25.6 | –
CC(C)CNC(=O)c1cccc(S(=O)(=O)c2ccc(CNC(=O)c3cc4ccncc4s3)cc2)c1 [N-{[4-({3-[(2-methylpropyl)carbamoyl]benzene}sulfonyl)phenyl]methyl}thieno[2,3-c]pyridine-2-carboxamide] | 5.2 | 14.5 | – | –
O=C(NCc1ccc(S(=O)(=O)c2cc(F)cc(N3CCCC3)c2)cc1)c1ccc2nccn2c1 | 3.9 | 2.2 | – | –
O=C(NCc1ccc(S(=O)(=O)c2cccc(F)c2)cc1)c1ccc2nccn2c1 [N-({4-[(3-fluorobenzene)sulfonyl]phenyl}methyl)imidazo[1,2-a]pyridine-6-carboxamide] | – | 12.2 | 22.1 | –
Cc1cc(C)cc(S(=O)(=O)c2ccc(CNC(=O)c3cc4ccncc4s3)cc2)c1 [N-({4-[(3,5-dimethylbenzene)sulfonyl]phenyl}methyl)thieno[2,3-c]pyridine-2-carboxamide] | – | – | 5 | 1.8
COc1cncc(S(=O)(=O)c2ccc(CNC(=O)c3cc4ccncc4s3)cc2)c1 [N-{[4-(5-methoxypyridine-3-sulfonyl)phenyl]methyl}thieno[2,3-c]pyridine-2-carboxamide] | 9 | 1.6 | – | –
O=C(NCc1ccc(S(=O)(=O)c2cnc(N3CCCC3)s2)cc1)c1cc2cnccc2[nH]1 [N-({4-[2-(pyrrolidin-1-yl)-1,3-thiazole-5-sulfonyl]phenyl}methyl)-1H-pyrrolo[3,2-c]pyridine-2-carboxamide] | 6 | 0.5 | – | –
Cc1ccnc(S(=O)(=O)c2ccc(CNC(=O)c3cc4ccncc4o3)cc2)c1 [N-{[4-(4-methylpyridine-2-sulfonyl)phenyl]methyl}furo[2,3-c]pyridine-2-carboxamide] | 19.2 | 11.4 | – | –
COc1ccc(C(C)C)cc1S(=O)(=O)c1ccc(CNC(=O)c2ccc3nccn3c2)cc1 | 35.2 | 6.4 | – | –
COc1ccc(S(=O)(=O)c2ccc(CNC(=O)c3cnc4nccn4c3)cc2)c(C)c1 | – | 67.9 | 2.4 | –
COc1ccc(S(=O)(=O)c2ccc(CNC(=O)c3cc4cnccc4[nH]3)cc2)c(Cl)c1 | – | 14.5 | 9.3 | –
O=C(NCc1ccc(S(=O)(=O)c2ccccc2)cc1)N1CCc2ncccc2C1 [N-{[4-(benzenesulfonyl)phenyl]methyl}-5,6,7,8-tetrahydro-1,6-naphthyridine-6-carboxamide] | – | – | 544 | > 2000

SMILES | IC50 (NAMPT; NAMPT enzymatic assay) [nM] | IC50 (A2780 cells; SRB) [nM] | IC50 (NAMPT; NAMPT enzymatic reaction) [nM] | IC50 (A2780 cells; SRB assay) [nM]
C#CCOc1ccc(Cl)cc1S(=O)(=O)c1ccc(CNC(=O)c2ccc3nccn3c2)cc1 | 7 | 1.4 | – | –
COc1ccc(Cl)c(S(=O)(=O)c2ccc(CNC(=O)c3cnc4nccn4c3)cc2)c1 | – | 51.5 | 6.1 | –
COc1c(F)cccc1S(=O)(=O)c1ccc(CNC(=O)c2cnc3[nH]ncc3c2)cc1 [N-({4-[(3-fluoro-2-methoxybenzene)sulfonyl]phenyl}methyl)-1H-pyrazolo[3,4-b]pyridine-5-carboxamide] | – | 100 to 1000 | 121 | –
COc1cccc(S(=O)(=O)c2ccc(CNC(=O)c3cnc4[nH]ncc4c3)cc2)c1F | – | 56.3 | 8.6 | –
Cc1ccc(S(=O)(=O)c2ccc(CNC(=O)c3cnc4nccn4c3)cc2)c(C)c1 | – | 49.2 | 2.1 | –
Cn1ncc2cc(S(=O)(=O)c3ccc(CNC(=O)c4cnc5nccn5c4)cc3)ccc21 [N-{[4-(1-methyl-1H-indazole-5-sulfonyl)phenyl]methyl}imidazo[1,2-a]pyrimidine-6-carboxamide] | 1.7 | 4.9 | – | –
O=C(NCc1ccc(S(=O)(=O)c2ccc(C(F)(F)F)c(F)c2)cc1)c1ccc2nccn2c1 | 40.2 | 4.4 | – | –
O=C(NCc1ccc(S(=O)(=O)c2ccccc2CN2CCOCC2)cc1)c1ccc2nccn2c1 [N-[(4-{[2-(morpholin-4-ylmethyl)benzene]sulfonyl}phenyl)methyl]imidazo[1,2-a]pyridine-6-carboxamide] | 136 | 34.2 | – | –
O=C(NCc1ccc(S(=O)(=O)c2cccc(-c3ccc(F)c(F)c3)n2)cc1)c1cc2ccncc2s1 [N-({4-[6-(3,4-difluorophenyl)pyridine-2-sulfonyl]phenyl}methyl)thieno[2,3-c]pyridine-2-carboxamide] | 2.2 | 13.2 | – | –
O=C(NCc1ccc(S(=O)(=O)c2ccc(F)c(F)c2)cc1)c1cc2ccncc2o1 | – | 13 | 16.8 | –
O=C(NCc1ccc(S(=O)(=O)c2ccc(C(F)(F)F)c(F)c2)cc1)c1cc2ccncc2s1 | 8.8 | 7.2 | – | –
CCCCOc1ccc(S(=O)(=O)c2ccc(CNC(=O)c3cnc4[nH]ncc4c3)cc2)cc1 [N-({4-[(4-butoxybenzene)sulfonyl]phenyl}methyl)-1H-pyrazolo[3,4-b]pyridine-5-carboxamide] | – | 22.5 | 27.5 | –
CCC[C@@H](O)c1ccc(S(=O)(=O)c2ccc(CNC(=O)c3cc4ccncc4o3)cc2)cc1 | 28.5 | 12.2 | – | –
COc1cc(C(F)(F)F)ccc1S(=O)(=O)c1ccc(CNC(=O)c2cnc3nccn3c2)cc1 | 4.4 | 22.4 | – | –
COc1cc(Cl)cc(S(=O)(=O)c2ccc(CNC(=O)c3cnc4[nH]ncc4c3)cc2)c1 | – | 2.5 | 9.3 | –
O=C(NCc1ccc(S(=O)(=O)c2ccc(F)c(F)c2)cc1)c1cnc2nccn2c1 | – | 36.3 | 4.1 | –
O=C(NCc1ccc(S(=O)(=O)c2cnn(-c3cccc(Cl)c3)c2)cc1)c1cnc2[nH]ncc2c1 [N-({4-[1-(3-chlorophenyl)-1H-pyrazole-4-sulfonyl]phenyl}methyl)-1H-pyrazolo[3,4-b]pyridine-5-carboxamide] | 28.2 | 55.6 | – | –
COc1ccc(Cl)c(S(=O)(=O)c2ccc(CNC(=O)c3ccc4nccn4c3)cc2)c1 | – | 2.7 | 5.6 | –
Cc1ccc(Cl)c(S(=O)(=O)c2ccc(CNC(=O)c3cc4ccncc4s3)cc2)c1Cl [N-({4-[(2,6-dichloro-3-methylbenzene)sulfonyl]phenyl}methyl)thieno[2,3-c]pyridine-2-carboxamide] | – | 8.2 | 4.4 | –
Cc1c(Cl)cccc1S(=O)(=O)c1ccc(CNC(=O)c2cc3ccncc3o2)cc1 | – | 1.6 | 2.6 | –
Cc1ccc(S(=O)(=O)c2ccc(CNC(=O)c3ccc4nccn4c3)cc2)cc1 [N-({4-[(4-methylbenzene)sulfonyl]phenyl}methyl)imidazo[1,2-a]pyridine-6-carboxamide] | – | 12 | 17.6 | –
O=C(NCc1ccc(S(=O)(=O)c2cnc3n2CCCCC3)cc1)c1cnc2nccn2c1 [N-[(4-{5H,6H,7H,8H,9H-imidazo[1,2-a]azepine-3-sulfonyl}phenyl)methyl]imidazo[1,2-a]pyrimidine-6-carboxamide] | 1.1 | 28.7 | – | –
CCCCOc1ccc(S(=O)(=O)c2ccc(CNC(=O)c3cc4ccncc4o3)cc2)cc1Cl | – | 10 | 4.7 | –
Cc1ccc(S(=O)(=O)c2ccc(CNC(=O)c3cnc4[nH]ncc4c3)cc2)cn1 [N-{[4-(6-methylpyridine-3-sulfonyl)phenyl]methyl}-1H-pyrazolo[3,4-b]pyridine-5-carboxamide] | 24.1 | 21.3 | – | –
